From patent publication US20090209598A1, “Resorcine Derivatives and Their Use as Pesticides” (priority 2005, published 2009)

Key:
Assay in all cases: whole plant or invertebrate
Assay type in all cases: in vivo
[1] = test system: Southern Armyworm (Spodoptera Eridania), 2Nd Instar Larvae; conditions: in Phaseolus lunatus, foliar, 96 h, leaf dip, at 4 days, read-out: mortality in comparison with untreated controls
Method: 3. Activity Against Southern Armyworm (Spodoptera Eridania), 2Nd Instar Larvae
The active compounds were formulated for testing the activity against insects and arachnids as a 10.000 ppm solution in a mixture of 35% acetone and water, which was diluted with water, if needed.
A Sieva lima bean leaf was dipped in the test solution and allowed to dry. The leaf was then placed in a plastic perforated zip enclosure bag and ten 2nd instar larvae were added. At 4 days, observations are made of mortality and reduced feeding.

[2] = test system: Tobacco Budworm (Heliothis virescens); conditions: 144 h, eggs sprayed with 10 μl test solution, 6 days
Method: 2. Activity Against Tobacco Budworm (Heliothis virescens)
The active compounds were formulated in 1:3 DMSO:water. 15 to 25 eggs were placed into microtiterplates filled with diet. The eggs were sprayed with 10 μl of the test solution, the plates were sealed with pierced foils and kept at 27-29° C. and 75-85% humidity under fluorescent light for 6 days. Mortality was assessed on the basis of the agility and of comparative feeding of the hatched larvae. Tests were replicated 2 times.

[3] = test system: Boll Weevil (Anthonomus grandis); conditions: eggs sprayed with 20 μl test solution, 3 to 5 days
Method: 1. Activity Against Boll Weevil (Anthonomus grandis)
The active compounds were formulated in 1:3 DMSO:water. 10 to 15 eggs were placed into microtiterplates filled with 2% agar-agar in water and 300 ppm formaline. The eggs were sprayed with 20 μl of the test solution, the plates were sealed with pierced foils and kept at 24-26° C. and 75-85% humidity with a day/night cycle for 3 to 5 days. Mortality was assessed on the basis of the remaining unhatched eggs or larvae on the agar surface and/or quantity and depth of the digging channels caused by the hatched larvae. Tests were replicated 2 times.

[4] = test system: diamond back moth (plutella xylostella); conditions: foliar, cabbage leaf disk dip, third instar larvae, after 72 h, read-out: mortality in comparison with untreated controls
Method: 6. Activity against diamond back moth (plutella xylostella)
The active compounds were formulated in 50:50 acetone:water and 0.1% (vol/vol) Alkamuls EL 620 surfactant. A 6 cm leaf disk of cabbage leaves was dipped in the test solution for 3 seconds and allowed to air dry in a Petri plate lined with moist filter paper. The leaf disk was inoculated with 10 third instar larvae and kept at […] and 50-60% humidity for 3 days. Mortality was assessed after 72 h of treatment.

Compound: FC(F)(F)c1ccc(OCCCCCCOc2cc(Cl)cc(OCC=C(Cl)Cl)c2)nc1 [I.2, 2-{6-[3-chloro-5-(3,3-dichloro-allyloxy)-phenoxy]-hexyloxy}-5-trifluoromethylpyridine]
- mortality at 300 ppm [1]: ≥ 80%
- mortality at 2500 ppm [2]: > 75%
- mortality at 2500 ppm [3]: > 75%
- mortality at 300 ppm [4]: ≥ 75%
